Laboratory results published in US5155109A, “3-piperazinosydnone imines, process for their preparation and their use” (Cassella Aktiengesellschaft, priority 1990, dated 1992).
Where a name gives a salt, the structure may show the parent alone.

System: spiral strips of the pulmonary artery of the guinea-pig
Assay: Relaxation of potassium-depolarised, CaCl2-contracted pulmonary artery spiral strips (modified method of Godfraind and Kaba and of Schuman et al.)
Details: for IC50: Cavia porcellus, 40 mmol/l potassium depolarised, contraction induced by 0.5 mmol/l CaCl2, cumulative addition in 1/2 log 10 steps, average of 4 to 6 vessel strips, read-out: IC50 (concentration of the test substance which inhibits the contraction by 50%); for Duration of action: time needed after addition of the test substance until the starting value is obtained again
Description: The pharmacological action of the compounds of the formula I was determined by a modified method of Godfraind and Kaba (Arch. Int. Pharmacodyn. Ther. 196, (Suppl) 35 to 49, 1972) and of Schuman et al. (Naunyn-Schmiedeberg,s Arch. Pharmacol. 289, 409 to 418, 1975). In this connection, spiral strips of the pulmonary artery of the guinea-pig are depolarised with 40 mmol/1 of potassium after equilibration in calcium-free Tyrode solution. An addition of 0.5 mmol/1 of CaCl2 then induces a contraction. The relaxing action of the test substance is determined by cumulative addition in 1/2 log 10 stepped concentrations. From the concentration-effect curve (abscissa: -log mol/1 of test substance, ordinate: % inhibition of the maximum contraction, average value of 4 to 6 vessel strips), the concentration of the test substance is determined which inhibits the contraction by 50% (=IC50, mol/1). The duration of action of the test substance is given by the time which is needed after the addition of the test substance until the starting value is obtained again. […] On the other hand, the similarly active compound SIN-1 is clearly surpassed by the compounds according to the invention with respect to its duration of action.

Compound	IC50	Duration of action
CC1(C)CN(S(C)(=O)=O)CCN1[n+]1cc(=N)o[n-]1.Cl [Example 1, 3-(2,2-Dimethyl-4-methanesulphonylpiperazin-1-yl)sydnone imine hydrochloride]	1900 nM	200 min
Cc1ccc(S(=O)(=O)N2CCN([n+]3cc(=N)o[n-]3)C(C)(C)C2)cc1.Cl [Example 2, 3-(2,2-Dimethyl-4-tosylpiperazin-1-yl)sydnone imine hydrochloride]	650 nM	220 min
CN(C)S(=O)(=O)N1CCN([n+]2cc(=N)o[n-]2)C(C)(C)C1 [Example 3, 3-(2,2-Dimethyl-4-dimthylaminosulphonylpiperazin-1-yl)sydnone imine hydrochloride]	2500 nM	200 min
CCOC(=O)[N-]c1cn(N2CCOCC2)n[o+]1 [Molsidomine, NEthoxycarbonyl-3-morpholinosydnone imine, reference compound]	300000 nM	100 min

Continued, in another order:

IC50	Compound	Duration of action
3000 nM	CC(C)C(=O)N=c1c[n+](N2CCN(S(C)(=O)=O)CC2(C)C)[n-]o1 [CH3, drawing 12]	210 min
1000 nM	Cl.N=c1c[n+](N2CCOCC2)[n-]o1 [SIN-1, 3Morpholinosydnone imine hydrochloride, reference compound]	80 min
